# Values joined by “and” are separate entries in the source; they are usually repeats but may differ in a detail not shown here. Identical values can stand only once.
# What was measured:
# [1] = tested on: fibroblasts from an abdominoplasty; experiment: GlaSbox contractile forces of fibroblasts on collagen lattices (stimulation, Example 3); type: cell-based, human; conditions: 2.5 ng/ml, 24 hours
# From the text: In this study, the GlaSbox® system was used to analyze the effect of cosmetic raw materials, TGFβ1, Taisoh Liquid B Jujube Extract (Ziziphus jujuba fruit), available from Ichimaru Pharcos, and Uplevity, available from Lipotec. TGFβ1, used in this study as a positive control, is known to play a role in cellular functions, including cell proliferation, differentiation, wound healing and matrix-related processes. Taisoh Liquid B Jujube Extract has been reported to stimulate wound healing. […]
# Fibroblasts were embedded three-dimensionally in hydrated collagen gels composed of 6 volumes of 1.76× (DMEMc, NaHCO3, NaOH, antibiotics), 3 volumes rat tail type I collagen (2 mg/ml) and 1 volume of cellular suspension (8×10^5 cells/ml) using a modified version of the technique developed by Bell et al. (Production of a tissue-like structure by contraction of collagen lattices by human fibroblasts of different proliferative potential in vitro. Proc. Natl. Acad. Sci. USA 76, 1274-1278 (1979). The lattice mixture was poured into the rectangular culture plate of the GlaSbox® and polymerized in less than 30 minutes at 37° C. […] The forces were expressed as arbitrary units (AU) after 24 hours of measurement. […]
# tropoelastin = experiment: Tropoelastin synthesis by HDFs; type: cell-based, human; conditions: 5 pg/ml
# Description: (§1) HDFs, at passage 4, were plated in 96 well plates. After the cells reached confluency they were placed under starvation conditions for 48 hours. Cells then were treated with test materials in cell medium for 72 hours after which the medium was collected for analysis of elastin (Elastin Elisa assay, SOP D.33). Cell viability also was measured using the MTT assay (SOP D.29). Statistical analysis was performed with an ANOVA+Fisher LSD post hoc test. A p value of less than 0.05 was considered significant.
# (§2) The results are presented as pg/ml elastin corrected for viability. The percent increase in elastin release is calculated as:
# (§3) % increase=[Amount Elastinactive/Amount Elastincontrol]×100−100
# fibrillin-1 = experiment: Fibrillin-1 release by HDFs (sandwich ELISA); type: cell-based, human; conditions: positive control, 100 ng/ml, 24 hours
# Description: Fibrillins, glycoproteins secreted by fibroblasts, are essential for the formation of elastic fibers found in connective tissue. Test compounds Mitostime (extract of Laminaria digitata) and Milk Peptide Complex (MPC or whey protein, available from CLR, Germany) were evaluated for their capacity to stimulate the synthesis of fibrillin-1 in HDFs.
# An aliquot of a selected fibroblast cell line (HDFs) was thawed, placed into culture, and allowed to establish good growth before passaging into a 24-well plate (5×10^4 cells/1 ml well). After overnight adhesion to the well, test compounds were added to the medium at three different concentrations and the cells were incubated for 24 hours. A positive control of 100 ng/ml TGFβ1, was included. The negative controls used were 0.1% BSA and 0.1% EtOH. After 24 hours, medium was harvested, centrifuged, and transferred to fibrillin-1 sandwich ELISA plates to determine the amount of fibrillin released.
# elastin = experiment: Elastin release by HDFs (Elastin Elisa); type: cell-based, human; conditions: 2.5 mg/ml, 72 hours
# Description: as §1, §2, §3
# [2] = tested on: skin explants from the abdominal tissue; experiment: General morphology of ex vivo skin explants, cortisol-induced premature senescence (Masson's trichrome); type: cell-based, human
# Description: Thirty three skin explants from the abdominal tissue of a donor, of an average diameter of 10 mm (±1 mm) were prepared.
# The formula with 0.1% cortisol was applied topically on days 2, 5, 6 and 7.
# On day 0, the three explants from the batch BO were collected and cut in two parts. One half was fixed in buffered formalin, and the other half was frozen at −80° C. On day 9, three explants from all other batches were collected and processed in the same way.
# Sections were then mounted on Superfrost® plus silanized glass slides. The microscopical observations were made using a Leica DMLB or Orthoplan microscope. Pictures were digitized with a numeric DP72 Olympus camera with CellD storing software.
# The observation of the general morphology was realized after staining of paraffinized sections according to Masson's trichrome, Goldner variant.
# progerin = experiment: Progerin immunostaining of ex vivo skin explants; type: cell-based, human
# Description: (§4) After fixation for 24 hours in buffered formalin, the samples were dehydrated and impregnated in paraffin using a Leica TP 1010 dehydration automat. The samples were then embedded using a Leica EG 1160 embedding station. 5-μm-thick sections were made using a Leica RM 2125 Minot-type microtome, and the sections were then mounted on Superfrost® histological glass slides.
# (§5) The immunostaining was assessed by microscopical observation.
# Progerin staining intensity was measured in a similar way as for p21.
# p21 = p21 immunostaining of ex vivo skin explants; type: cell-based, human
# Description: as §4, §5
# The evaluation of the p21 immunostained pictures was based on both the number of cells that were stained as well as the staining intensity in each cell.
# fibroblasts from eyelid = experiment: GlaSbox contractile forces on collagen lattices, with or without cortisol, eyelid fibroblasts; type: cell-based, human; conditions: cortisol 250 ng/ml
# From the text: In this study, the GlaSbox® system was used to analyze the effect of cortisol, with and without test materials, on the contractile forces generated by fibroblasts populating collagen lattices. The GlaSbox® device differs from other collagen lattice systems in that it uses a fixed, non-floating collagen lattice where the diameter of the collagen lattice remains constant but electrodes measure the actual contractile forces exerted by the cells on the collagen lattice. Fibroblasts were obtained from eyelid and abdominal skin of Chinese female donors. The effect of Biobenefity and Albizia julibrissin on the contractile forces of fibroblasts originating from eyelid, with or without exposure to cortisol (250 ng/ml), were evaluated. Two fibroblast cell types, one originating from eyelid and the other one from abdominal skin tissue, were purchased from Tebu-Bio (Boechout, Belgium). These cell types were isolated from different donors, each being a person. The fibroblasts were embedded three-dimensionally in hydrated collagen gel lattices. […] The forces are expressed as arbitrary units. […] Data are expressed as mean±standard deviation. The measurement of contractile forces was analyzed by means of a variance analysis with two factors (group versus control and time). […]
# [3] = tested on: fibroblasts from abdominal skin; experiment: GlaSbox contractile forces on collagen lattices, with or without cortisol, abdominal fibroblasts; type: cell-based, human; conditions: cortisol 250 ng/ml
# From the text: In this study, the GlaSbox® system was used to analyze the effect of cortisol, with and without test materials, on the contractile forces generated by fibroblasts populating collagen lattices. The GlaSbox® device differs from other collagen lattice systems in that it uses a fixed, non-floating collagen lattice where the diameter of the collagen lattice remains constant but electrodes measure the actual contractile forces exerted by the cells on the collagen lattice.
# Fibroblasts were obtained from eyelid and abdominal skin of Chinese female donors. The effect of Biobenefity and Albizia julibrissin on the contractile forces of fibroblasts originating from eyelid, with or without exposure to cortisol (250 ng/ml), were evaluated.
# Two fibroblast cell types, one originating from eyelid and the other one from abdominal skin tissue, were purchased from Tebu-Bio (Boechout, Belgium). These cell types were isolated from different donors, each being a person. […] The forces are expressed as arbitrary units.
# Each Glasbox® curve was fitted with GraphPad Prism® software to determine the area under the curve (AUC) and the maximum of contraction (Max). […] Data are expressed as mean±standard deviation. The measurement of contractile forces was analyzed by means of a variance analysis with two factors (group versus control and time). […]
# [4] = tested on: Human dermal fibroblasts (HDFs); experiment: Free floating fibroblast-populated collagen lattice (FPCL) contraction; type: cell-based
# Description: Human dermal fibroblasts (HDFs, passages 6-7) were maintained in Falcon 75 cm^2 tissue culture flasks in DMEM supplemented with 10% FBS. Cells were harvested from monolayer culture, and placed in 6-well culture plates (1×10^5 cells/well). Cells were pretreated with 25 μM hydrocortisone or with a combination of 25 μM hydrocortisone and different concentrations of test materials for 24 hours before being applied to free floating fibroblast populated collagen lattices.
# Gels containing collagen HDFs were prepared as described by Tomasek, J. J., et al. (Fibroblast contraction occurs on release of tension in attached collagen lattices: dependency on an organized actin cytoskeleton and serum. Anat. Rec., 1992, March; 232(3):359-68), incorporated herein by reference in its entirety, with modifications as follows. Briefly, collagen solution (Corning, Rat tail, 354236), concentrated DMEM, 0.1N NaOH and FBS, were gently mixed at 4° C., giving a suspension at a final density of 5×10^5 cells and 3 mg/ml collagen. The collagen/cell suspension (2 ml total) was poured on 35 mm-uncoated dish and allowed to polymerize for 45 minutes at 37° C. Then lattices were released and gels were allowed to float in the medium. […]
# Fibroblast contractility was assessed by measuring changes in the surface area of collagen I gels mediated by fibroblasts. […] Thereafter, lattice diameter was measured. […]
# [5] = day 9, with 0.1% cortisol, Biwa leaf, Biobenefity, Juvinity 0.5% w/v, IBR Dormin 0.1% w/v
# [6] = 0.1% cortisol, day 9, versus untreated
compound,measurement,setting,value
"TGFβ1: Transforming Growth Factor β, secreted protein used as a positive control",Increase of contractile forces (AUC),[1],25.5%
same,Increase of maximum contraction,[1],26.0%
same,Increase in tropoelastin synthesis versus untreated cells,tropoelastin,175%
same,Fibrillin release at baseline level,fibrillin-1,stimulate the fibrillin release
"O=C[C@H](O)[C@H](O)[C@H](O)CO [Riboxyl, D-ribose]",Increase in elastin synthesis versus untreated cells,elastin,66%
"CC(C)=CCCC(C)=CCCC(C)=CCCC(C)=CCCC(C)O (stereo not shown) [Juvinity, Geranylgeranyl-2-propanol]",General morphology of explants,"[2]; day 9, absence of cortisol, Biwa leaf, Biobenefity, Juvinity 0.5% w/v, IBR Dormin 0.1% w/v in medium","altered morphology, with pycnotic nuclei and cellular spongiosis"
same,Effect on cortisol-induced morphology (epidermal thickness),"[2]; day 9, with topical 0.1% cortisol, Biwa leaf, Biobenefity, Juvinity 0.5% w/v, IBR Dormin 0.1% w/v",did not have any beneficial effect
same,Effect on cortisol-induced increase in progerin staining intensity,progerin; [5],did not show a beneficial effect
same,Effect on cortisol-induced increase in p21 staining intensity,p21; [5],partially reduce
C[C@]12CCC(=O)C=C1CC[C@@H]1[C@@H]2[C@@H](O)C[C@@]2(C)[C@H]1CC[C@]2(O)C(=O)CO [cortisol],Contractile forces (AUC and maximum contractile force),fibroblasts from eyelid,significant decrease
same,Contractile forces (AUC and maximum contractile force),[3],significant decrease
same,General morphology of explants,[2]; 0.1% cortisol topically during 7 days (day 2 to day 9),moderate epidermal atrophy
same,Decrease of lattice contraction versus untreated lattices,"[4]; 25 μM, listed as hydrocortisone",11.8% and 9%
same,Decrease of lattice contraction versus untreated lattices,[4]; 50 μM,18%
same,Progerin staining intensity,progerin; [6],increased from weak to moderate
same,p21 staining intensity (semi-quantitative grading),p21; [6],from very weak to moderate

# Source: patent US20170172909A1, “Method Of Counteracting The Impact Of Chronic Stress On Skin” (ELC MANAGEMENT LLC, priority 2015, published 2017)
